Measured values as given in patent publication US20020193320A1, “C-2 modified erythromycin derivatives” (priority 1999, published 2002).

How the values were obtained:
Assay in all cases: In vitro antibacterial activity, agar dilution MIC
Type in all cases: cell-based
Candida albicans CCH 442 = test system: Candida albicans CCH 442; design: unit not given here; conditions: code TT, BHI agar, 35-37° C., 20 to 24 hours
Protocol: (§1) Representative compounds of the present invention were assayed in vitro for antibacterial activity as follows: Twelve petri dishes containing successive aqueous dilutions of the test compound mixed with 10 mL of sterilized Brain Heart Infusion (BHI) agar (Difco 0418-01-5) were prepared. Each plate was inoculated with 1:100 (or 1:10 for slow-growing strains, such as Micrococcus and Streptococcus) dilutions of up to 32 different microorganisms, using a Steers replicator block. The inoculated plates were incubated at 35-37° C. for 20 to 24 hours. In addition, a control plate, using BHI agar containing no test compound, was prepared and incubated at the beginning and end of each test.
(§2) An additional plate containing a compound having known susceptibility patterns for the organisms being tested and belonging to the same antibiotic class as the test compound was also prepared and incubated as a further control, as well as to provide test-to-test comparability.
(§3) After incubation, each plate was visually inspected. The minimum inhibitory concentration (MIC) was defined as the lowest concentration of drug yielding no growth, a slight haze, or sparsely isolated colonies on the inoculum spot as compared to the growth control.

[1] = test system: Enterococcus faecium ATCC X043; design: unit not given here; conditions: code II, BHI agar, 35-37° C., 20 to 24 hours
Protocol: as §1, §2, §3

Escherichia coli DC-2 = test system: Escherichia coli DC-2; design: unit not given here; conditions: code SS, BHI agar, 35-37° C., 20 to 24 hours
Protocol: as §1, §2, §3

Escherichia coli JUHL = test system: Escherichia coli JUHL; design: unit not given here; conditions: code QQ, BHI agar, 35-37° C., 20 to 24 hours
Protocol: as §1, §2, §3

Escherichia coli SS = test system: Escherichia coli SS; design: unit not given here; conditions: code RR, BHI agar, 35-37° C., 20 to 24 hours
Protocol: as §1, §2, §3

[2] = test system: Micrococcus luteus ATCC 9341; design: unit not given here; conditions: code OO, BHI agar, 35-37° C., 20 to 24 hours
Protocol: as §1, §2, §3

[3] = test system: Mycobacterium smegmatis ATCC 114; design: unit not given here; conditions: code UU, BHI agar, 35-37° C., 20 to 24 hours
Protocol: as §1, §2, §3

[4] = test system: Nocardia Asteroides ATCC 99700; design: unit not given here; conditions: code VV, BHI agar, 35-37° C., 20 to 24 hours
Protocol: as §1, §2, §3

[5] = test system: Staphylococcus aureus 1775; design: unit not given here; conditions: code GG, BHI agar, 35-37° C., 20 to 24 hours
Protocol: as §1, §2, §3

[6] = test system: Staphylococcus aureus A-5177; design: unit not given here; conditions: code BB, BHI agar, 35-37° C., 20 to 24 hours
Protocol: as §1, §2, §3

[7] = test system: Staphylococcus aureus A-5278; design: unit not given here; conditions: code CC, BHI agar, 35-37° C., 20 to 24 hours
Protocol: as §1, §2, §3

[8] = test system: Staphylococcus aureus ATCC 6538P; design: unit not given here; conditions: code AA, BHI agar, 35-37° C., 20 to 24 hours
Protocol: as §1, §2, §3

[9] = test system: Staphylococcus aureus CMX 553; design: unit not given here; conditions: code FF, BHI agar, 35-37° C., 20 to 24 hours
Protocol: as §1, §2, §3

[10] = test system: Staphylococcus aureus CMX 642A; design: unit not given here; conditions: code DD, BHI agar, 35-37° C., 20 to 24 hours
Protocol: as §1, §2, §3

[11] = test system: Staphylococcus aureus NCTC 10649M; design: unit not given here; conditions: code EE, BHI agar, 35-37° C., 20 to 24 hours
Protocol: as §1, §2, §3

[12] = test system: Staphylococcus epidermidis 3519; design: unit not given here; conditions: code HH, BHI agar, 35-37° C., 20 to 24 hours
Protocol: as §1, §2, §3

[13] = test system: Streptococcus agalactiae CMX 508; design: unit not given here; conditions: code KK, BHI agar, 35-37° C., 20 to 24 hours
Protocol: as §1, §2, §3

[14] = test system: Streptococcus bovis A-5169; design: unit not given here; conditions: code JJ, BHI agar, 35-37° C., 20 to 24 hours
Protocol: as §1, §2, §3

[15] = test system: Streptococcus pyogenes 930; design: unit not given here; conditions: code MM, BHI agar, 35-37° C., 20 to 24 hours
Protocol: as §1, §2, §3

[16] = test system: Streptococcus pyogenes PIU 2548; design: unit not given here; conditions: code NN, BHI agar, 35-37° C., 20 to 24 hours
Protocol: as §1, §2, §3

[17] = test system: Haemophilis Influenzae DILL AMP R; conditions: code WW, 35-37° C., 20 to 24 hours
Protocol: as §1, §2, §3

[18] = test system: Micrococcus luteus ATCC 4698; conditions: code PP, BHI agar, 35-37° C., 20 to 24 hours
Protocol: as §1, §2, §3

[19] = test system: Streptococcus Pneumonia 5649; conditions: code ZZA (code list: ZA), 35-37° C., 20 to 24 hours
Protocol: as §1, §2, §3

[20] = test system: Streptococcus Pneumonia 5979; conditions: code ZZ, 35-37° C., 20 to 24 hours
Protocol: as §1, §2, §3

[21] = test system: Streptococcus Pneumonia ATCC 6303; conditions: code XX, 35-37° C., 20 to 24 hours
Protocol: as §1, §2, §3

[22] = test system: Streptococcus Pneumonia GYR 1171; conditions: code YY, 35-37° C., 20 to 24 hours
Protocol: as §1, §2, §3

[23] = test system: Streptococcus pyogenes EES61; conditions: code LL, BHI agar, 35-37° C., 20 to 24 hours
Protocol: as §1, §2, §3

Molecule	Antibacterial Activity (MIC) (Candida albicans CCH 442)	Antibacterial Activity (MIC) [1]	Antibacterial Activity (MIC) (Escherichia coli DC-2)	Antibacterial Activity (MIC) (Escherichia coli JUHL)	Antibacterial Activity (MIC) (Escherichia coli SS)	Antibacterial Activity (MIC) [2]	Antibacterial Activity (MIC) [3]	Antibacterial Activity (MIC) [4]	Antibacterial Activity (MIC) [5]	Antibacterial Activity (MIC) [6]	Antibacterial Activity (MIC) [7]	Antibacterial Activity (MIC) [8]	Antibacterial Activity (MIC) [9]	Antibacterial Activity (MIC) [10]	Antibacterial Activity (MIC) [11]	Antibacterial Activity (MIC) [12]	Antibacterial Activity (MIC) [13]	Antibacterial Activity (MIC) [14]	Antibacterial Activity (MIC) [15]	Antibacterial Activity (MIC) [16]	further results
C#CCOC1(C)CC(C)C(=O)C(C)C2NC(=O)OC2(C)C(CC)OC(=O)C(C)(CC=Cc2ccccc2)C(=O)C(C)C1OC1OC(C)CC(N(C)C)C1O (stereo not drawn) [Example 9, Compound of formula (II): R^a is —CH2C≡CH, R^b is H, Y and Z together are O, T is —NH—, R is —CH2CH≡CH—(phenyl)]	>100	3.1	>100	>100	6.2	1.56	12.5	1.56	100	3.1	>100	3.1	3.1	3.1	12.5	6.2	1.56	0.78	50	3.1	Antibacterial Activity (MIC) [17]: >64; Antibacterial Activity (MIC) [18]: 3.1; Antibacterial Activity (MIC) [19]: 8; Antibacterial Activity (MIC) [20]: 64; Antibacterial Activity (MIC) [21]: 1; Antibacterial Activity (MIC) [22]: 1; Antibacterial Activity (MIC) [23]: 1.56
Compound of formula (II): R^a is CH3, R^b is H, Y and Z together are O, T is —N(W(R^g)-, W is —(CH2)p-, p is 4, R^g is phenyl, R is —OH [Example 2]	100	0.39	>100	>100	6.2	0.39	3.1	3.1	100	1.56	100	1.56	1.56	3.1	1.56	3.1	0.2	0.2	25	0.39	Antibacterial Activity (MIC) ([17]; unit assumed): 64 µg/mL; Antibacterial Activity (MIC) ([18]; unit assumed): 0.78 µg/mL; Antibacterial Activity (MIC) ([19]; unit assumed): 1 µg/mL; Antibacterial Activity (MIC) ([20]; unit assumed): 32 µg/mL; Antibacterial Activity (MIC) ([21]; unit assumed): 0.5 µg/mL; Antibacterial Activity (MIC) ([22]; unit assumed): 0.25 µg/mL; Antibacterial Activity (MIC) ([23]; unit assumed): 0.1 µg/mL
